Experiments:
Tie2 = Tie2 (Homo sapiens, UniProt Q02763); experiment: Tie-2-Kinase HTRF-Assay without kinase preactivation (assay 2); assay type: biochemical; parameters: fusion protein of GST and the intracellular domains of Tie-2; GST; made in house; host or cells: insect cells (Hi-5); conditions: 10 μM ATP, pIC50 = -log IC50 in molar concentration
Description: Tie2-inhibitory activity of compounds of the present invention was quantified employing two Tie2 HTRF assay as described in the following paragraphs.
A recombinant fusion protein of GST and the intracellular domains of Tie-2, expressed in insect cells (Hi-5) and purified by Glutathion-Sepharose affinity chromatography was used as kinase. Alternatively, commercially available GST-Tie2-fusion protein (Upstate Biotechnology, Dundee, Scotland) can be used As substrate for the kinase reaction the biotinylated peptide biotin-Ahx-EPKDDAYPLYSDFG (C-terminus in amid form) was used which can be purchased e.g. from the company Biosynthan GmbH (Berlin-Buch, Germany). Detection of phosphorylated product is achieved specifically by a trimeric detection complex consisting of the phosphorylated substrate, streptavidin-XLent (SA-XLent) which binds to biotin, and Europium Cryptate-labeled anti-phosphotyrosine antibody PT66 which binds to phosphorylated tyrosine.
Tie-2 (3.5 ng/measurement point) was incubated for 60 min at 22° C. in the presence of 10 μM adenosine-tri-phosphate (ATP) and 1 μM substrate peptide (biotin-Ahx-EPKDDAYPLYSDFG-NH2) with different concentrations of test compounds (0 μM and concentrations in the range 0.001-20 μM) in 5 μl assay buffer [50 mM Hepes/NaOH pH 7, 10 mM MgCl2, 0.5 mM MnCl2, 1.0 mM dithiothreitol, 0.01% NP40, protease inhibitor mixture (“Complete w/o EDTA” from Roche, 1 tablet per 2.5 ml), 1% (v/v) dimethylsulfoxide]. The reaction was stopped by the addition of 5 μl of an aqueous buffer (25 mM Hepes/NaOH pH 7.5, 0.28% (w/v) bovine serum albumin) containing EDTA (90 mM) and the HTRF (Homogeneous Time Resolved Fluorescence) detection reagents streptavidine-XLent (0.2 μM, from Cis Biointernational, Marcoule, France) and PT66-Eu-Chelate (0.3 ng/μl; a europium-chelate labelled anti-phospho-tyrosine antibody from Perkin Elmer).
(§1) The resulting mixture was incubated 1 h at 22° C. to allow the binding of the biotinylated phosphorylated peptide to the streptavidine-XLent and the PT66-Eu-Chelate. Subsequently the amount of phosphorylated substrate peptide was evaluated by measurement of the resonance energy transfer from the PT66-Eu-Chelate to the streptavidine-XLent. Therefore, the fluorescence emissions at 620 nm and 665 nm after excitation at 350 nm was measured in a HTRF reader, e.g. a Rubystar (BMG Labtechnologies, Offenburg, Germany) or a Viewlux (Perkin-Elmer). The ratio of the emissions at 665 nm and at […] was taken as the measure for the amount of phosphorylated substrate peptide. The data were normalised (enzyme reaction without inhibitor=0% inhibition, all other assay components but no enzyme=100% inhibition) and IC50 values were calculated by a 4 parameter fit using an inhouse software.

Aurora-C = molecular target: T1, Aurora-C (Homo sapiens, UniProt Q9UQB9); experiment: Aurora C HTRF assay (assay 5); assay type: biochemical; conditions: IC50 assay 5/IC50 assay 2
T1 construct: GST; made in house; host or cells: HEK293 (the text adds '(Sf9)', which contradicts this)
T1 sequence (Q9UQB9 1-309): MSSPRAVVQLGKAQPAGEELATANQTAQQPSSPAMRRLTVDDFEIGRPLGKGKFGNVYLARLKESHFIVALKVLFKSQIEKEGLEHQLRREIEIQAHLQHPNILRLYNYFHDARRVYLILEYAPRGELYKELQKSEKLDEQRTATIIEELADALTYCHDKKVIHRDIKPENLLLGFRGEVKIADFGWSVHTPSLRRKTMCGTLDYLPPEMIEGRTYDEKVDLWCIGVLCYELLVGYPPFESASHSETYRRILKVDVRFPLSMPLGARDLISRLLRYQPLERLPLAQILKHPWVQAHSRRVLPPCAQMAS
Description: Assay 5: Aurora C HTRF Assay
Aurora-C inhibitory activity of compounds of the present invention was quantified employing the Aurora-C HTRF assay as described in the following paragraphs.
Recombinant fusion protein of GST and human Aurora-C was expressed in transiently transfected HEK293 cells (Sf9) and purified by Glutathion-Sepharose affinity chromatography. As substrate for the kinase reaction biotinylated peptide biotin-Ttds-FMRLRRLSTKYRT (C-terminus in amid form) was used which can be purchased e.g. form the company JERINI peptide technologies (Berlin, Germany). Aurora-C was incubated for 60 min at 22° C. in the presence of different concentrations of test compounds in 5 μl assay buffer [25 mM Hepes/NaOH pH 7.4, 0.5 mM MnCl2, 2.0 mM dithiothreitol, 0.1 mM sodium ortho-vanadate, 10 μM adenosine-tri-phosphate (ATP), […] substrate, 0.01% (v/v) TritonX-100 (Sigma), 0.05% (w/v) bovine serum albumin, 1% (v/v) dimethylsulfoxide]. The concentration of Aurora-C was adjusted depending of the activity of the enzyme lot and was chosen appropriate to have the assay in the linear range, typical concentrations were in the range of 0.3 nM. The reaction was stopped by the addition of 5 μl of a solution of HTRF detection reagents (0.2 μM streptavidine-XLent and 1.4 nM Anti-Phospho-(Ser/Thr) Akt substrate-Cryptate (Cis biointernational, France, product no. 61P02KAE), a labeled Phospho-(Ser/Thr) Akt substrate antibody [product #9611B, Cell Signalling Technology, Danvers, Mass., USA] labeled with Europium Cryptate, in an aqueous EDTA-solution (40 mM EDTA, 400 mM KF, 0.05% (w/v) bovine serum albumin in 25 mM HEPES/NaOH pH 7.0).
as §1, with “Anti-Phospho-(Ser/Thr) Akt substrate-Cryptate.” for “PT66-Eu-Chelate.”, “substrate” for “substrate peptide”, “Prot-A-EuK” for “PT66-Eu-Chelate”, “substrate.” for “substrate peptide.”

Sequence of Tie2 (Q02763 770-1124 limits assumed, species assumed): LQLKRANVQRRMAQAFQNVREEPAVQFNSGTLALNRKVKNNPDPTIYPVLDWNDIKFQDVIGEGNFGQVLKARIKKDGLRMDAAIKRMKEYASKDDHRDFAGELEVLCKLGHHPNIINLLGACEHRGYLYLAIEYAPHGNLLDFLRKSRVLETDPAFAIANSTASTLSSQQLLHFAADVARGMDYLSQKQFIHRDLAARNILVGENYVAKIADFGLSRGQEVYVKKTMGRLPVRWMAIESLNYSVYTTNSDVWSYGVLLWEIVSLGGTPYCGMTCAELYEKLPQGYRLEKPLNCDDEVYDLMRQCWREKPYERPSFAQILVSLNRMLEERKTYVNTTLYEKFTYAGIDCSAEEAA

| IC50 (Tie2) | Selectivity vs. Aurora C (Aurora-C) | Compound |
| --- | --- | --- |
| < 100 nM | >20 fold | O=C(Nc1ccc(-c2cnc3nc2NCCCNS(=O)(=O)c2cccc(c2)N3)cc1)C1(c2cccc(Cl)c2)CC1 [Example 5, 1-(3-Chloro-phenyl)-cyclopropane-arboxylic acid [4-(13,13-dioxo-13λ^6-thia-2,4,8,12,19-pentaaza-tricyclo[12.3.1.1^3,7]-nadeca-1(18),3(19),4,6,14,16-hexaen-6-yl)-phenyl]-amide] |
| < 100 nM | >20 fold | O=C(Nc1ccc(-c2cnc3nc2NCCCNS(=O)(=O)c2cccc(c2)N3)cc1)C1(c2ccc(C(F)(F)F)cc2)CC1 [Example 11, 1-(4-Trifluoromethyl-phenyl)-cyclopropane-carboxylic acid [4-(13,13-dioxo-13λ^6-thia-2,4,8,12,19-pentaaza-tricyclo[12.3.1.1^3,7]nonadeca-1(18),3(19),4,6,14,16-hexaen-6-yl)-phenyl]-amide] |
| < 100 nM | >20 fold | O=C(Nc1ccc(-c2cnc3nc2NCCCNS(=O)(=O)c2cccc(c2)N3)cc1)C1(c2ccc(Cl)cc2)CC1 [Example 6, 1-(4-Chloro-phenyl)-cyclopropane-carboxylic acid [4-(13,13-dioxo-13λ^6-thia-2,4,8,12,19-pentaaza-tricyclo[12.3.1.1^3,7]-nonadeca-1(18),3(19),4,6,14,16-hexaen-6-yl)-phenyl]-amide] |
| < 100 nM | >20 fold | CC(C)(C(=O)Nc1ccc(-c2cnc3nc2NCCCNS(=O)(=O)c2cccc(c2)N3)cc1)c1ccc(Cl)cc1 [Example 13, 2-(4-Chloro-phenyl)-N-[4-(13,13-dioxo-13λ^6-thia-2,4,8,12,19-pentaaza-tricyclo[12.3.1.1^3,7]-nonadeca-1(18),3(19),4,6,14,16-hexaen-6-yl)-phenyl]-isobutyramide] |
| < 100 nM | >20 fold | COc1cccc(C2(C(=O)Nc3ccc(-c4cnc5nc4NCCCNS(=O)(=O)c4cccc(c4)N5)cc3)CC2)c1 [Example 3, 1-(3-Methoxy-phenyl)-cyclopropane-carboxylic acid [4-(13,13-dioxo-13λ^6-thia-2,4,8,12,19-pentaaza-tricyclo[12.3.1.1^3,7]nonadeca-1(18),3(19),4,6,14,16-hexaen-6-yl)-phenyl]-amide] |
| < 100 nM | >20 fold | Cc1ccccc1C1(C(=O)Nc2ccc(-c3cnc4nc3NCCCNS(=O)(=O)c3cccc(c3)N4)cc2)CC1 [Example 2, 1-o-Tolyl-cyclopropane-arboxylic acid [4-(13,13-dioxo-13λ^6-thia-2,4,8,12,19-pentaaza-tricyclo[12.3.1.1^3,7]nonadeca-1(18),3(19),4,6,14,16-hexaen-6-yl)-phenyl]-amide] |
| < 100 nM | >20 fold | O=C(Nc1ccc(-c2cnc3nc2NCCCNS(=O)(=O)c2cccc(c2)N3)cc1)C1(c2ccccc2F)CC1 [Example 7, 1-(2-Fluoro-phenyl)-cyclopropane-carboxylic acid [4-(13,13-dioxo-13λ^6-thia-2,4,8,12,19-pentaaza-tricyclo[12.3.1.1^3,7]nonadeca-1(18),3(19),4,6,14,16-hexaen-6-yl)-phenyl]-amide] |
| < 100 nM | >20 fold | Cc1ccc(C2(C(=O)Nc3ccc(-c4cnc5nc4NCCCNS(=O)(=O)c4cccc(c4)N5)cc3)CC2)cc1 [Example 1, 1-p-Tolyl-cyclopropane-carboxylic acid [4-(13,13-dioxo-13λ^6-thia-2,4,8,12,19-pentaaza-tricyclo[12.3.1.1^3,7]nonadeca-1(18),3(19),4,6, 14,16-hexaen-6-yl)-phenyl]-amide] |
| 100 to 1000 nM | >20 fold | O=C(Nc1ccc(-c2cnc3nc2NCCCNS(=O)(=O)c2cccc(c2)N3)cc1)C1(c2cccc(C(F)(F)F)c2)CC1 [Example 10, 1-(3-Trifluoromethyl-phenyl)-cyclopropane-carboxylic acid [4-(13,13-dioxo-13λ^6-thia-2,4,8,12,19-pentaaza-tricyclo[12.3.1.1^3,7]nonadeca-1(18),3(19),4,6,14,16-hexaen-6-yl)-phenyl]-amide] |
| < 100 nM | >20 fold | O=C(Nc1ccc(-c2cnc3nc2NCCCNS(=O)(=O)c2cccc(c2)N3)cc1)C1(c2cc(C(F)(F)F)ccc2F)CC1 [Example 12, 1-(2-Fluoro-5-trifluoromethyl-phenyl)-cyclopropane-carboxylic acid [4-(13,13-dioxo-13λ^6-thia-2,4,8,12,19-pentaaza-tricyclo[12.3.1.1^3,7]-nonadeca-1(18),3(19),4,6,14,16-hexaen-6-yl)-phenyl]-amide] |
| < 100 nM | >20 fold | O=C(Nc1ccc(-c2cnc3nc2NCCCNS(=O)(=O)c2cccc(c2)N3)cc1)C1(c2ccc(F)cc2)CC1 [Example 9, 1-(4-Fluoro-phenyl)-cyclopropane-carboxylic acid [4-(13,13-dioxo-13λ^6-thia-2,4,8,12,19-pentaaza-tricyclo[12.3.1.1^3.7]nonadeca-1(18),3(19),4,6,14,16-hexaen-6-yl)-phenyl]-amide] |
| < 100 nM | >20 fold | COc1ccc(C2(C(=O)Nc3ccc(-c4cnc5nc4NCCCNS(=O)(=O)c4cccc(c4)N5)cc3)CC2)cc1 [Example 4, 1-(4-Methoxy-phenyl)-cyclopropane-carboxylic acid [4-(13,13-dioxo-13λ^6-thia-2,4,8,12,19-pentaaza-tricyclo[12.3.1.1^3,7]-nonadeca-1(18),3(19),4,6,14,16-hexaen-6-yl)-phenyl]-amide] |
